Patent publication EP4567040A1, “CRYSTAL FORM OF FUSED TRICYCLIC DERIVATIVE AND PREPARATION METHOD” (Jiangsu Hengrui Pharmaceuticals Co., Ltd., priority 2022, dated 2024)

System: DPX2 (HepG2 cells were stably transfected with the human PXR gene and the fluorescent reporter gene) cells
Assay: Cell viability in the PXR induction assay (CellTiter-Fluor)
Assay type: cell-based
Procedure: • 1. The potential of the test compounds to induce the activity of drug metabolism enzymes through in vitro activation of PXR was evaluated. […] […] Experimental procedures • 3.1. Preparation for plating • 1) 50 mL of FBS was added to 450 mL of cell culture medium. • 2) DPX2 cells were cultured in a T-75 culture flask in a 37 °C, 5% CO2 incubator with 95% relative humidity. When covering 80-90% of the bottom of the culture flask, the cells were digested. • 3) The top layer of cells cultured in the T-75 culture flask was washed with 8 mL of PBS, and the PBS was pipetted off. The cells were digested with 3 mL of pancreatin at 37 °C for about 5 min or until they were floating in the pancreatin. 10 mL (excessive) of a serum-containing culture medium was added to neutralize the pancreatin. • 4) The cell suspension was transferred to a conical-bottomed centrifuge tube and centrifuged at 120 g for 10 min. The cells were suspended in the plating culture medium, and the concentration was adjusted to 4 × 10^5 cells/mL. The diluted cells were added to a 96-well cell culture plate at 100 µL/well. The culture plate was placed in an incubator and incubated at 37 °C for 24 h before the PXR activation experiment. • 3.2. […] […] The final concentration of DMSO was 0.1%. 1 µL of DMSO was added to a well containing 1 mL of pre-incubated culture medium as a solvent control. • 2) The cell culture plate was taken out of the incubator, and the culture medium was discarded. The test compounds and the positive compound were added to appropriate wells at 100 µL/well, and each group was tested in duplicate. The cell plate was placed in an incubator and incubated for 24 h. • 3.3. Quantification of PXR activation • 1) After […] of compound treatment, PXR activation was quantified for the culture. • 2) The CellTiter-Fluor™ cell viability assay kit and the One-Glo Luciferase reagent were equilibrated to room temperature. The GF-AFC (10 µL) substrate was added to Assay Buffer (10 mL) to form a 2× reagent, and the reagent was then diluted to 1× with 10 mL of PBS; the ONE-Glo substrate was added to the ONE-Glo Luciferase Assay buffer. • 3) The cell culture plate was taken out of the incubator, and the culture medium in each well was discarded. The plate was washed twice with PBS. The 1× CellTiter-Fluor™ reagent was added to a sterilized reagent reservoir, and 50 µL was transferred to each well using a multi-channel pipette. The plate was incubated at 37 °C for 30 min. • 4) The 96-well cell plate was taken out of the incubator, and the fluorescence in each well was measured using a microplate reader put in the fluorescence mode at an excitation wavelength of 400 nm and an emission wavelength of 505 nm. • 5) The ONE-Glo reagent was poured into a reagent reservoir, and then 50 µL was transferred to each well using a multi-channel pipette. The reagent was gently and well mixed, and the mixture was incubated and well mixed at room temperature for 5 min. After the incubation, the luminescence in each well was measured using a luminometer.
The calculation formula for cell viability: Percent cell viability (%) = I(sample)/(I(vehicle) × 100 [formula]
I(sample) represents the fluorescence intensity of the sample, and I(vehicle) represents the fluorescence intensity of 0.1% DMSO to cells.

## CO[C@H]1/C=C/O[C@@]2(C)Oc3c(C)c(O)c4c(O)c(c(/C=N/N5CCN(C)CC5)c(O)c4c3C2=O)NC(=O)/C(C)=C\C=C\[C@H](C)[C@H](O)[C@@H](C)[C@@H](O)[C@@H](C)[C@H](OC(C)=O)[C@@H]1C [Rifampicin, reference compound]
Compound concentration 0.0195 µM
  Cell viability (%): 103.39%
Compound concentration 20.0 µM
  Cell viability (%): 93.07%
